From the NIST ThermoML archive (doi:10.1021/je200922s)
Numbers after ± are expanded uncertainties.

Test: xn = mol fraction of the nth substance listed
Conditions: 101 kPa, Liquid; for viscosity: Capillary tube (Ostwald / Ubbelohde) method; for mass density: Vibrating tube method

CCn1cc[n+](C)c1.O=S(=O)([N-]S(=O)(=O)C(F)(F)F)C(F)(F)F + CN1CCCC1=O
Conditions | mass density [kg/m3] | viscosity [mPa·s]
293.15 K, x1 = 0.0978 | 1144.09 ± 0.36 | 3.344 ± 0.14
293.15 K, x1 = 0.1979 | 1228.99 ± 0.45 | 5.561 ± 0.23
293.15 K, x1 = 0.2957 | 1292.83 ± 0.51 | 8.637 ± 0.35
293.15 K, x1 = 0.395 | 1344.49 ± 0.56 | 12.04 ± 0.49
293.15 K, x1 = 0.493 | 1386.31 ± 0.59 | 15.84 ± 0.65
293.15 K, x1 = 0.5893 | 1420.55 ± 0.61 | 20.06 ± 0.82
293.15 K, x1 = 0.6917 | 1451.44 ± 0.63 | 24.72 ± 1
293.15 K, x1 = 0.798 | 1478.94 ± 0.65 | 29.72 ± 1.2
293.15 K, x1 = 0.9002 | 1502.24 ± 0.67 | 34.93 ± 1.4
298.15 K, x1 = 0.0978 | 1139.45 ± 0.35 | 3.026 ± 0.12
298.15 K, x1 = 0.1979 | 1224.19 ± 0.44 | 4.943 ± 0.2
298.15 K, x1 = 0.2957 | 1287.87 ± 0.5 | 7.604 ± 0.31
298.15 K, x1 = 0.395 | 1339.44 ± 0.55 | 10.45 ± 0.43
298.15 K, x1 = 0.493 | 1381.19 ± 0.59 | 13.6 ± 0.56
298.15 K, x1 = 0.5893 | 1415.41 ± 0.6 | 17.07 ± 0.7
298.15 K, x1 = 0.6917 | 1446.29 ± 0.62 | 20.87 ± 0.86
298.15 K, x1 = 0.798 | 1473.78 ± 0.65 | 24.7 ± 1
298.15 K, x1 = 0.9002 | 1497.09 ± 0.67 | 28.7 ± 1.2
303.15 K, x1 = 0.0978 | 1134.72 ± 0.35 | 2.754 ± 0.11
303.15 K, x1 = 0.1979 | 1219.33 ± 0.44 | 4.457 ± 0.18
303.15 K, x1 = 0.2957 | 1282.91 ± 0.5 | 6.749 ± 0.28
303.15 K, x1 = 0.395 | 1334.42 ± 0.55 | 9.159 ± 0.37
303.15 K, x1 = 0.493 | 1376.09 ± 0.58 | 11.82 ± 0.48
303.15 K, x1 = 0.5893 | 1410.27 ± 0.6 | 14.7 ± 0.6
303.15 K, x1 = 0.6917 | 1441.15 ± 0.62 | 17.85 ± 0.73
303.15 K, x1 = 0.798 | 1468.63 ± 0.64 | 21.05 ± 0.86
303.15 K, x1 = 0.9002 | 1491.96 ± 0.66 | 24.29 ± 1
308.15 K, x1 = 0.0978 | 1130.03 ± 0.34 | 2.519 ± 0.1
308.15 K, x1 = 0.1979 | 1214.47 ± 0.43 | 4.028 ± 0.16
308.15 K, x1 = 0.2957 | 1277.97 ± 0.49 | 6.033 ± 0.25
308.15 K, x1 = 0.395 | 1329.38 ± 0.54 | 8.092 ± 0.33
308.15 K, x1 = 0.493 | 1371 ± 0.58 | 10.37 ± 0.42
308.15 K, x1 = 0.5893 | 1405.15 ± 0.59 | 12.81 ± 0.52
308.15 K, x1 = 0.6917 | 1436.01 ± 0.61 | 15.44 ± 0.63
308.15 K, x1 = 0.798 | 1463.48 ± 0.64 | 18.24 ± 0.75
308.15 K, x1 = 0.9002 | 1486.83 ± 0.66 | 20.83 ± 0.85
313.15 K, x1 = 0.0978 | 1125.31 ± 0.34 | 2.314 ± 0.094
313.15 K, x1 = 0.1979 | 1209.6 ± 0.43 | 3.647 ± 0.15
313.15 K, x1 = 0.2957 | 1272.99 ± 0.49 | 5.43 ± 0.22
313.15 K, x1 = 0.395 | 1324.28 ± 0.54 | 7.19 ± 0.29
313.15 K, x1 = 0.493 | 1365.88 ± 0.58 | 9.174 ± 0.38
313.15 K, x1 = 0.5893 | 1399.96 ± 0.59 | 11.26 ± 0.46
313.15 K, x1 = 0.6917 | 1430.83 ± 0.61 | 13.44 ± 0.55
313.15 K, x1 = 0.798 | 1458.28 ± 0.63 | 15.76 ± 0.64
313.15 K, x1 = 0.9002 | 1481.67 ± 0.65 | 18.12 ± 0.74
318.15 K, x1 = 0.0978 | 1120.61 ± 0.34 | 2.13 ± 0.087
318.15 K, x1 = 0.1979 | 1204.73 ± 0.42 | 3.325 ± 0.14
318.15 K, x1 = 0.2957 | 1268 ± 0.48 | 4.916 ± 0.2
318.15 K, x1 = 0.395 | 1319.23 ± 0.53 | 6.44 ± 0.26
318.15 K, x1 = 0.493 | 1360.77 ± 0.57 | 8.18 ± 0.33
318.15 K, x1 = 0.5893 | 1394.81 ± 0.58 | 9.989 ± 0.41
318.15 K, x1 = 0.6917 | 1425.65 ± 0.6 | 11.83 ± 0.48
318.15 K, x1 = 0.798 | 1453.09 ± 0.63 | 13.78 ± 0.56
318.15 K, x1 = 0.9002 | 1476.54 ± 0.65 | 15.79 ± 0.65
323.15 K, x1 = 0.0978 | 1115.91 ± 0.33 | 1.98 ± 0.081
323.15 K, x1 = 0.1979 | 1199.83 ± 0.42 | 3.079 ± 0.12
323.15 K, x1 = 0.2957 | 1262.96 ± 0.48 | 4.481 ± 0.18
323.15 K, x1 = 0.395 | 1314.12 ± 0.53 | 5.816 ± 0.24
323.15 K, x1 = 0.493 | 1355.62 ± 0.57 | 7.344 ± 0.3
323.15 K, x1 = 0.5893 | 1389.73 ± 0.58 | 8.911 ± 0.36
323.15 K, x1 = 0.6917 | 1420.58 ± 0.6 | 10.51 ± 0.43
323.15 K, x1 = 0.798 | 1448.03 ± 0.62 | 12.31 ± 0.5
323.15 K, x1 = 0.9002 | 1471.41 ± 0.64 | 13.95 ± 0.57
